Values after ≈ are worked out from the molar mass of the structure shown. “Also recorded” adds a separate entry of the source.
What was measured:
T. cruzi Epi [1] = experiment: Anti-parasitic activity on T. cruzi epimastigotes (Trypan Blue differential count); settings: for IC50: Trypanosoma cruzi, read-out: Epi IC50 ± SD, epimastigotes, 72 h; for IC50 / Epi IC50 ± SD: 72 h; for Epi SI (CC50/IC50): Vero CC50 / epimastigote IC50; for Epi IC50 ± SD: epimastigotes
Experimental: (§1) Vero lineage derived from African Green Monkey Kidney (Vero, ATCC CCL-81) was used for selectivity index determination and for Tryp and Amas production. These cells were grown on DMEM (Life Technology, CA, USA) media, pH: 7.4; supplemented with 10% of inactivated Fetal Bovine Serum (FBSi), 1000 U/mL of penicillin, and 100 μg/mL of streptomycin; and incubated at 37 °C with 90% humidity and a 5% CO2 atmosphere. Epi of T. cruzi I (TcI) SYLVIO-X10 strain, were donated by Dr. Marcos López-Casillas, from Fundación Cardiovascular de Colombia and grown in LIT medium (Merck) supplemented with 10% FBSi, and incubated at 28 °C. The Trypomastigotes Derived from Cells (TDC) were obtained by infection of a confluent monolayer of Vero cells with 12 day-old stationary growth phase Epi and incubated under the same conditions described above for Vero cells.
(§2) T. cruzi Epi (5 × 10^5 Epi/mL) and TDC (5 × 10^5 cells/mL) in the exponential growth phase were plated in a 96-well standard microplate in LIT medium (at 28 °C) and in D-MEM medium (at 37 °C in a 5% CO2 atmosphere), respectively. Both cultures were supplemented with 10% FBSi. For the trypanocidal assays, the EOs or their terpenes were added at varying concentrations (3.7 to 100 μg/mL) and incubated at the same culture conditions for 72 (Epi) or 24 h (Tryp). The growth inhibition was estimated by light microscopy through a differential count using the Trypan Blue (Gibco) dye exclusion technique. […] For Amas assays, a monolayer of Vero cells (3 × 10^5 cel/mL) was infected with TDC in a 1:3 cell:parasite ratio and incubated for 24 h until Amas development occurred. Then, these intracellular forms were exposed for 120 h to EOs or terpenes in a treatment applied in two doses (at 0 and 48 h), under the same conditions described above. Growth inhibition analysis was assessed in Giemsa-stained films using light microscopy to determine the infected and uninfected cell percentage in a total of 300 cells. Cells without treatment and those treated with BNZ were used as negative and positive controls, respectively.

T. cruzi Tryp (TDC) = experiment: Anti-parasitic activity on T. cruzi trypomastigotes derived from cells (Trypan Blue differential count); settings: for IC50: Trypanosoma cruzi, read-out: Tryp IC50 SD, trypomastigotes, 24 h; for IC50 / Tryp IC50 SD: 24 h; for Tryp SI (CC50/IC50): Vero CC50 / trypomastigote IC50; for Tryp IC50 SD: trypomastigotes
Experimental: as §1, §2

T. cruzi Amas = experiment: Anti-parasitic activity on intracellular T. cruzi amastigotes in Vero cells (Giemsa count); format: cell-based, Trypanosoma cruzi; settings: for IC50: Trypanosoma cruzi, Vero, read-out: Amas IC50 ± SD; for IC50 / Amas IC50 ± SD: intracellular amastigotes in Vero, 120 h, two doses (0 and 48 h); for Amas SI (CC50/IC50): Vero CC50 / amastigote IC50
Experimental: as §1, §2

[2] = Cytotoxic activity on Vero cells (WST-1); settings: African green monkey, pH 7.4
Experimental: as §1
(§3) Vero cells (3 × 10^5 cel/mL) were incubated at 37 °C in a 5% CO2 atmosphere and at 95% humidity for 24 h to ensure the formation of a confluent monolayer. After this time, the cells were treated with the EOs or their terpenes in four different concentrations (11.1, 33.3, 100, and 300 μg/mL). Thereafter, the lineages were incubated for 70 h at 37 °C in a 5% CO2 atmosphere and re-incubated 2 more hours with WST-1 (Roche, Mannheim, Germany), after which Optical Density (OD) measurements were analyzed by spectrophotometry. The cytotoxicity percentage was calculated using [(OD450nm Control – OD450nm treatment) / […])] × 100. The results were expressed as Cytotoxic Concentration 50 (CC50).

T. cruzi Epi [3] = experiment: Flow cytometry Annexin V / SYTOX Green cell death analysis on epimastigotes; format: cell-based, Trypanosoma cruzi; settings: 48 h at 2xIC50, flow cytometry
Experimental: For cell death characterization, an Annexin V/Dead with SYTOX® Green (Molecular Probes, Invitrogen) kit was used following the procedure specified in the manufacturer’s instructions. The phosphatidylserine externalization was determined by employing a recombinant Annexin V conjugated to the Orange Fluorescent phycobiliprotein R-PE, and to the necrotic cells using SYTOX™ Green nucleic acid stain. Briefly, 1 × 10^6 Epi per mL were treated with 2xIC50 for 48 h, washed, and suspended in 1X Annexin-Binding Buffer.

T. cruzi Epi [4] = experiment: Morphological analysis by optical and fluorescent microscopy (DIC, DAPI, MitoTracker); format: cell-based, Trypanosoma cruzi; settings: 2xIC50, 48 h
Experimental: (§4) The death phenotype was analyzed by optical and fluorescent microscopy using phase contrast (fluorescence microscopy, Nikon Eclipse Ni). […] Determination of an oligonucleosomal-DNA ladder in treated parasites was also evaluated through DNA gel electrophoresis. Evaluation of the mitochondrial potential membrane in living parasites was performed with MitoTracker Red CMXRos (579 nm/599 nm […] wavelength). As a positive and negative apoptosis control, a 15 day-old Epi culture and an untreated fresh parasite culture were used, respectively.

Vero cells = experiment: Cytotoxic activity on Vero cells (WST-1); settings: Vero cells, 72 h, WST-1
Experimental: as §1, §3

T. cruzi Epi [5] = experiment: DNA fragmentation by TUNEL assay on epimastigotes; format: cell-based, Trypanosoma cruzi; settings: for DNA fragmentation (positive TUNEL) percentage: Epi, 48 h, 2xIC50; for TUNEL assay result: treated parasites
Experimental: as §4

[6] = Vero cells (ATCC CCL-81), kidney

CC(C)=CCCC(C)=CC=O (mixture of isomers) [Citral, citral]
IC50 (T. cruzi Epi [1]): 37.2 µg/mL | Epi SI (CC50/IC50) (T. cruzi Epi [1]): 2.4 | Epi IC50 ± SD (T. cruzi Epi [1]): 37 ± 0.7 µg/mL | IC50 (T. cruzi Tryp (TDC)): 20.8 µg/mL | Tryp SI (CC50/IC50) (T. cruzi Tryp (TDC)): 4.3 | Tryp IC50 SD (T. cruzi Tryp (TDC)): 21 ± 1 µg/mL | IC50 (T. cruzi Amas): 49 ± 2.3 µg/mL | Amas SI (CC50/IC50) (T. cruzi Amas): 1.8 | CC50 at 72 h [2, 6]: 90 ± 3.9 µg/mL | percentage of cell death (T. cruzi Epi [3]): 78.4% | morphological changes of treated parasites (T. cruzi Epi [4]): typical characteristics of apoptosis

O=C(Cn1ccnc1[N+](=O)[O-])NCc1ccccc1 [BNZ, Benznidazole, reference compound]
IC50 (T. cruzi Epi [1]): 17 ± 0.9 µg/mL (≈ 65.3 µM) | Epi SI (CC50/IC50) (T. cruzi Epi [1]): 8.2 | IC50 (T. cruzi Tryp (TDC)): 1.2 ± 0.1 µg/mL (≈ 4.61 µM) | Tryp SI (CC50/IC50) (T. cruzi Tryp (TDC)): 116.3 | IC50 (T. cruzi Amas): 6 ± 0.9 µg/mL (≈ 23.1 µM) | Amas SI (CC50/IC50) (T. cruzi Amas): 22.4 | Amas IC50 ± SD (T. cruzi Amas): 6.2 ± 0.9 µg/mL | CC50 at 72 h [2, 6]: 139 ± 2.3 µg/mL (≈ 534 µM) | morphological changes of treated parasites (T. cruzi Epi [4]): cellular edema and loss of cellular membrane integrity, but with conserved mitochondrial energetic potential

C=C(C)[C@H]1CC=C(C)C(=O)C1 [Carvone, S (+) carvone]
IC50 (T. cruzi Epi [1]): 177 ± 7.9 µg/mL (≈ 1180 µM) | Epi SI (CC50/IC50) (T. cruzi Epi [1]): 1.4 | IC50 (T. cruzi Tryp (TDC)): 124 ± 8 µg/mL (≈ 825 µM) | Tryp SI (CC50/IC50) (T. cruzi Tryp (TDC)): 1.9 | IC50 (T. cruzi Amas): > 100 µg/mL | CC50 at 72 h [2]: 240 ± 4.1 µg/mL (≈ 1600 µM)

C=C(C)[C@H]1CC=C(C)CC1 [Limonene, D (+) limonene]
Tryp IC50 SD (T. cruzi Tryp (TDC)): 9 ± 0.8 µg/mL | Amas IC50 ± SD (T. cruzi Amas): 29 ± 0.7 µg/mL | Amas IC50 ± SD (T. cruzi Amas; listed as limonene): 28.7 µg/mL | Vero CC50 ± SD (Vero cells): 297 ± 2.4 µg/mL | DNA fragmentation (positive TUNEL) percentage (T. cruzi Epi [5]): 94% | TUNEL assay result (T. cruzi Epi [5]): positive | percentage of cell death (T. cruzi Epi [3]): 89.2% | morphological changes of treated parasites (T. cruzi Epi [4]): typical characteristics of apoptosis

(−) caryophyllene oxide [CarOx]
Epi SI (CC50/IC50) (T. cruzi Epi [1]): 4.3 | cell death percentage (CDP) on Epi (T. cruzi Epi [1]; at 50 μg/mL): 78 ± 2.3% | Epi IC50 ± SD (T. cruzi Epi [1]): 30 ± 1.7 µg/mL | Epi IC50 ± SD (T. cruzi Epi [1]; listed as caryophyllene oxide): 29.8 µg/mL | Tryp SI (CC50/IC50) (T. cruzi Tryp (TDC)): 5.9 | cell death percentage (CDP) on Tryp (T. cruzi Tryp (TDC); at 50 μg/mL): 98 ± 0.5% | Tryp IC50 SD (T. cruzi Tryp (TDC)): 22 ± 0.3 µg/mL | Tryp IC50 SD (T. cruzi Tryp (TDC); listed as caryophyllene oxide): 21.6 µg/mL | Amas SI (CC50/IC50) (T. cruzi Amas): 2.7 | Amas IC50 ± SD (T. cruzi Amas): 47 ± 1.0 µg/mL | Amas IC50 ± SD (T. cruzi Amas; listed as caryophyllene oxide): 47.4 µg/mL | Vero CC50 ± SD (Vero cells): 128 ± 4.2 µg/mL | DNA fragmentation (positive TUNEL) percentage (T. cruzi Epi [5]): 99% | TUNEL assay result (T. cruzi Epi [5]): positive | percentage of cell death (T. cruzi Epi [3]): 95.7% | morphological changes of treated parasites (T. cruzi Epi [4]): flagellum to be lost; also recorded: typical characteristics of apoptosis

— publication PMC6062979 (BMC Complementary and Alternative Medicine, 2018)
